Source: the CheMixHub viscosity set
± gives the uncertainty stated by the source.

Test: xn = mol fraction of the nth substance listed

ClC=C(Cl)Cl + CC(=O)CC(C)C
viscosity [mPa·s], 101.33 kPa
Conditions | x1 = 0.1088 | x1 = 0.1998 | x1 = 0.3286 | x1 = 0.4037 | x1 = 0.5018 | x1 = 0.5921 | x1 = 0.7362 | x1 = 0.7986 | x1 = 0.8859
298.15 K | 0.564 ± 0.007 | 0.578 ± 0.007 | 0.593 ± 0.008 | 0.603 ± 0.008 | 0.616 ± 0.008 | 0.621 ± 0.008 | 0.631 ± 0.008 | 0.63 ± 0.008 | 0.624 ± 0.008
308.15 K | 0.508 ± 0.007 | 0.516 ± 0.007 | 0.533 ± 0.007 | 0.546 ± 0.007 | 0.561 ± 0.007 | 0.574 ± 0.007 | 0.595 ± 0.008 | 0.6 ± 0.008 | 0.605 ± 0.008
318.15 K | 0.464 ± 0.006 | 0.475 ± 0.006 | 0.49 ± 0.006 | 0.5 ± 0.007 | 0.51 ± 0.007 | 0.519 ± 0.007 | 0.533 ± 0.007 | 0.539 ± 0.007 | 0.547 ± 0.007

O=C1CCCC1 + CCCCCCO
303.15 K, 101 kPa
Conditions | viscosity [mPa·s]
x1 = 0.0985 | 2.896 ± 0.026
x1 = 0.2605 | 2.093 ± 0.019
x1 = 0.4224 | 1.641 ± 0.015
x1 = 0.5807 | 1.333 ± 0.012
x1 = 0.7406 | 1.132 ± 0.01
x1 = 0.9025 | 1.016 ± 0.009

NC1CCCCC1 + C1COCO1
298.15 K, 101 kPa
Conditions | viscosity [mPa·s]
x2 = 0.1295 | 1.517 ± 0.012
x2 = 0.2508 | 1.331 ± 0.01
x2 = 0.3646 | 1.174 ± 0.0093
x2 = 0.4716 | 1.044 ± 0.0084
x2 = 0.5724 | 0.9345 ± 0.0076
x2 = 0.6676 | 0.8431 ± 0.007
x2 = 0.7575 | 0.7633 ± 0.0064
x2 = 0.8427 | 0.6955 ± 0.0059
x2 = 0.9234 | 0.6344 ± 0.0055

ClC=C(Cl)Cl + ClC(Cl)Cl
303.15 K, 101.33 kPa
Conditions | viscosity [mPa·s]
x1 = 0.1451 | 0.517 ± 0.1
x1 = 0.2431 | 0.521 ± 0.1
x1 = 0.3368 | 0.521 ± 0.1
x1 = 0.4687 | 0.521 ± 0.1
x1 = 0.5793 | 0.519 ± 0.1
x1 = 0.6718 | 0.519 ± 0.1
x1 = 0.7912 | 0.519 ± 0.1
x1 = 0.868 | 0.518 ± 0.1
x1 = 0.9526 | 0.518 ± 0.1

O=C1CCCC1 + CNC=O
viscosity [mPa·s], 101 kPa
Conditions | x2 = 0.0865 | x2 = 0.1756 | x2 = 0.2675 | x2 = 0.3623 | x2 = 0.4601 | x2 = 0.5611 | x2 = 0.6654 | x2 = 0.7732 | x2 = 0.8847
303.15 K | 1.041 ± 0.051 | 1.104 ± 0.054 | 1.165 ± 0.056 | 1.226 ± 0.059 | 1.293 ± 0.062 | 1.355 ± 0.065 | 1.412 ± 0.067 | 1.467 ± 0.069 | 1.532 ± 0.072
308.15 K | 0.9797 ± 0.049 | 1.035 ± 0.051 | 1.09 ± 0.053 | 1.144 ± 0.056 | 1.204 ± 0.058 | 1.258 ± 0.06 | 1.309 ± 0.063 | 1.358 ± 0.065 | 1.414 ± 0.067
313.15 K | 0.9075 ± 0.045 | 0.9589 ± 0.048 | 1.01 ± 0.05 | 1.059 ± 0.052 | 1.114 ± 0.054 | 1.164 ± 0.056 | 1.21 ± 0.058 | 1.255 ± 0.06 | 1.307 ± 0.063
318.15 K | 0.8512 ± 0.043 | 0.8981 ± 0.045 | 0.9442 ± 0.047 | 0.9895 ± 0.049 | 1.039 ± 0.051 | 1.085 ± 0.053 | 1.127 ± 0.055 | 1.167 ± 0.057 | 1.215 ± 0.059

ClC=C(Cl)Cl + CCCCCCCO
303.15 K, 101 kPa
Conditions | viscosity [mPa·s]
x2 = 0.1161 | 0.734 ± 0.018
x2 = 0.2045 | 0.863 ± 0.019
x2 = 0.3792 | 1.166 ± 0.022
x2 = 0.4884 | 1.459 ± 0.025
x2 = 0.5714 | 1.767 ± 0.027
x2 = 0.6298 | 2.03 ± 0.029
x2 = 0.737 | 2.643 ± 0.033
x2 = 0.8161 | 3.197 ± 0.036
x2 = 0.9242 | 4.119 ± 0.04
